The NIST ThermoML archive (doi:10.1016/j.tca.2012.01.013)

What was measured:
[1] = xn = mol fraction of the nth substance listed; details: 101 kPa, Liquid, Vibrating tube method
[2] = refractive index (Na D-line) (dimensionless); xn = mol fraction of the nth substance listed; details: 101 kPa, Liquid, Standard Abbe refractometry

COC(=O)CCCCC(=O)OC [dimethyl 1,6-hexanedioate] + CCC(C)=O
Details	mass density, [1] [kg/m3]	refractive index, [2]
288.15 K, x1 = 0.1002	855.132	1.3909
288.15 K, x1 = 0.2002	893.327	1.39827
288.15 K, x1 = 0.3002	926.063	1.40453
288.15 K, x1 = 0.4004	954.409	1.40995
288.15 K, x1 = 0.5001	979.016	1.41452
288.15 K, x1 = 0.5999	1000.72	1.41853
288.15 K, x1 = 0.6998	1020.03	1.42204
288.15 K, x1 = 0.7994	1037.28	1.42515
288.15 K, x1 = 0.8997	1052.86	1.42797
288.15 K, x1 = 1	1066.79	1.4305
293.15 K, x1 = 0.1002	849.982	1.38847
293.15 K, x1 = 0.2002	888.227	1.39586
293.15 K, x1 = 0.3002	921.006	1.40221
293.15 K, x1 = 0.4004	949.39	1.40768
293.15 K, x1 = 0.5001	974.03	1.41229
293.15 K, x1 = 0.5999	995.763	1.41634
293.15 K, x1 = 0.6998	1015.1	1.41989
293.15 K, x1 = 0.7994	1032.37	1.42303
293.15 K, x1 = 0.8997	1047.98	1.42587
293.15 K, x1 = 1	1061.93	1.42842
298.15 K, x1 = 0.1002	844.812	1.38601
298.15 K, x1 = 0.2002	883.111	1.39346
298.15 K, x1 = 0.3002	915.937	1.39988
298.15 K, x1 = 0.4004	944.361	1.4054
298.15 K, x1 = 0.5001	969.035	1.41005
298.15 K, x1 = 0.5999	990.798	1.41416
298.15 K, x1 = 0.6998	1010.17	1.41774
298.15 K, x1 = 0.7994	1027.45	1.42091
298.15 K, x1 = 0.8997	1043.08	1.42378
298.15 K, x1 = 1	1057.06	1.42636
303.15 K, x1 = 0.1002	839.62	1.38348
303.15 K, x1 = 0.2002	877.976	1.39104
303.15 K, x1 = 0.3002	910.852	1.39751
303.15 K, x1 = 0.4004	939.32	1.4031
303.15 K, x1 = 0.5001	964.032	1.4078
303.15 K, x1 = 0.5999	985.828	1.41196
303.15 K, x1 = 0.6998	1005.23	1.41557
303.15 K, x1 = 0.7994	1022.54	1.41878
303.15 K, x1 = 0.8997	1038.19	1.42168
303.15 K, x1 = 1	1052.18	1.42429
308.15 K, x1 = 0.1002	834.401	1.38097
308.15 K, x1 = 0.2002	872.82	1.38859
308.15 K, x1 = 0.3002	905.75	1.39515
308.15 K, x1 = 0.4004	934.263	1.40079
308.15 K, x1 = 0.5001	959.015	1.40555
308.15 K, x1 = 0.5999	980.845	1.40974
308.15 K, x1 = 0.6998	1000.27	1.41341
308.15 K, x1 = 0.7994	1017.61	1.41667
308.15 K, x1 = 0.8997	1033.29	1.41961
308.15 K, x1 = 1	1047.31	1.42222
313.15 K, x1 = 0.1002	829.151	1.37832
313.15 K, x1 = 0.2002	867.64	1.38611
313.15 K, x1 = 0.3002	900.629	1.39277
313.15 K, x1 = 0.4004	929.193	1.39848
313.15 K, x1 = 0.5001	953.987	1.4033
313.15 K, x1 = 0.5999	975.853	1.40756
313.15 K, x1 = 0.6998	995.312	1.41126
313.15 K, x1 = 0.7994	1012.68	1.41455
313.15 K, x1 = 0.8997	1028.38	1.41751
313.15 K, x1 = 1	1042.43	1.42017
318.15 K, x1 = 0.1002	823.875	1.37568
318.15 K, x1 = 0.2002	862.438	1.38355
318.15 K, x1 = 0.3002	895.489	1.39031
318.15 K, x1 = 0.4004	924.104	1.39611
318.15 K, x1 = 0.5001	948.941	1.401
318.15 K, x1 = 0.5999	970.845	1.40532
318.15 K, x1 = 0.6998	990.336	1.40909
318.15 K, x1 = 0.7994	1007.74	1.41243
318.15 K, x1 = 0.8997	1023.47	1.41544
318.15 K, x1 = 1	1037.54	1.41819
323.15 K, x1 = 0.1002	818.564	1.37305
323.15 K, x1 = 0.2002	857.21	1.38103
323.15 K, x1 = 0.3002	890.33	1.38784
323.15 K, x1 = 0.4004	919.003	1.39374
323.15 K, x1 = 0.5001	943.887	1.39869
323.15 K, x1 = 0.5999	965.832	1.40307
323.15 K, x1 = 0.6998	985.36	1.40691
323.15 K, x1 = 0.7994	1002.79	1.4103
323.15 K, x1 = 0.8997	1018.55	1.41336
323.15 K, x1 = 1	1032.64	1.41614

COC(=O)c1ccccc1C(=O)OC [dimethyl 1,2-benzenedicarboxylate] + CCC(C)=O
Details	mass density, [1] [kg/m3]	refractive index, [2]
288.15 K, x1 = 0.1002	878.718	1.40705
288.15 K, x1 = 0.2001	936.554	1.42733
288.15 K, x1 = 0.3002	986.029	1.44555
288.15 K, x1 = 0.3997	1028.42	1.46042
288.15 K, x1 = 0.4982	1064.97	1.47261
288.15 K, x1 = 0.6001	1098.15	1.48425
288.15 K, x1 = 0.6993	1126.71	1.49362
288.15 K, x1 = 0.7993	1152.38	1.50271
288.15 K, x1 = 0.9002	1175.59	1.51071
288.15 K, x1 = 1	1196.26	1.51779
293.15 K, x1 = 0.1002	873.583	1.40471
293.15 K, x1 = 0.2001	931.496	1.42489
293.15 K, x1 = 0.3002	981.04	1.44315
293.15 K, x1 = 0.3997	1023.49	1.45808
293.15 K, x1 = 0.4982	1060.1	1.4703
293.15 K, x1 = 0.6001	1093.33	1.48198
293.15 K, x1 = 0.6993	1121.93	1.49141
293.15 K, x1 = 0.7993	1147.64	1.50053
293.15 K, x1 = 0.9002	1170.9	1.50855
293.15 K, x1 = 1	1191.59	1.51565
298.15 K, x1 = 0.1002	868.432	1.40224
298.15 K, x1 = 0.2001	926.423	1.42243
298.15 K, x1 = 0.3002	976.038	1.44075
298.15 K, x1 = 0.3997	1018.55	1.45576
298.15 K, x1 = 0.4982	1055.22	1.46801
298.15 K, x1 = 0.6001	1088.5	1.47972
298.15 K, x1 = 0.6993	1117.16	1.48918
298.15 K, x1 = 0.7993	1142.92	1.49835
298.15 K, x1 = 0.9002	1166.21	1.5064
298.15 K, x1 = 1	1186.93	1.51354
303.15 K, x1 = 0.1002	863.253	1.39965
303.15 K, x1 = 0.2001	921.334	1.41998
303.15 K, x1 = 0.3002	971.032	1.43839
303.15 K, x1 = 0.3997	1013.62	1.45342
303.15 K, x1 = 0.4982	1050.34	1.4657
303.15 K, x1 = 0.6001	1083.68	1.47746
303.15 K, x1 = 0.6993	1112.38	1.48696
303.15 K, x1 = 0.7993	1138.18	1.49618
303.15 K, x1 = 0.9002	1161.51	1.50426
303.15 K, x1 = 1	1182.28	1.51146
308.15 K, x1 = 0.1002	858.059	1.39705
308.15 K, x1 = 0.2001	916.232	1.41752
308.15 K, x1 = 0.3002	966.01	1.4359
308.15 K, x1 = 0.3997	1008.66	1.45091
308.15 K, x1 = 0.4982	1045.45	1.46339
308.15 K, x1 = 0.6001	1078.84	1.4752
308.15 K, x1 = 0.6993	1107.6	1.48475
308.15 K, x1 = 0.7993	1133.45	1.49399
308.15 K, x1 = 0.9002	1156.83	1.50211
308.15 K, x1 = 1	1177.62	1.50943
313.15 K, x1 = 0.1002	852.838	1.3943
313.15 K, x1 = 0.2001	911.111	1.41502
313.15 K, x1 = 0.3002	960.975	1.43328
313.15 K, x1 = 0.3997	1003.7	1.44834
313.15 K, x1 = 0.4982	1040.55	1.46101
313.15 K, x1 = 0.6001	1074.01	1.47289
313.15 K, x1 = 0.6993	1102.82	1.48252
313.15 K, x1 = 0.7993	1128.73	1.49187
313.15 K, x1 = 0.9002	1152.15	1.50006
313.15 K, x1 = 1	1172.97	1.50736
318.15 K, x1 = 0.1002	847.588	1.39158
318.15 K, x1 = 0.2001	905.966	1.4124
318.15 K, x1 = 0.3002	955.922	1.43077
318.15 K, x1 = 0.3997	998.73	1.44591
318.15 K, x1 = 0.4982	1035.65	1.45864
318.15 K, x1 = 0.6001	1069.17	1.47061
318.15 K, x1 = 0.6993	1098.05	1.48032
318.15 K, x1 = 0.7993	1124.01	1.48973
318.15 K, x1 = 0.9002	1147.47	1.49796
318.15 K, x1 = 1	1168.32	1.50524
323.15 K, x1 = 0.1002	842.312	1.38878
323.15 K, x1 = 0.2001	900.811	1.40956
323.15 K, x1 = 0.3002	950.87	1.42768
323.15 K, x1 = 0.3997	993.761	1.44306
323.15 K, x1 = 0.4982	1030.75	1.45602
323.15 K, x1 = 0.6001	1064.33	1.4681
323.15 K, x1 = 0.6993	1093.26	1.47795
323.15 K, x1 = 0.7993	1119.27	1.48748
323.15 K, x1 = 0.9002	1140.78	1.49582
323.15 K, x1 = 1	1163.67	1.5032
